Measured values taken from patent US20230105108A1, “COMPOUNDS FOR THE TREATMENT OF BACTERIAL INFECTIONS AND POTENTIATION OF ANTIBIOTICS” (GEORGIA STATE UNIVERSITY RESEARCH FOUNDATION, INC., priority 2019, published 2023).
Counter-ions that a name gives are not always drawn. Like-named read-outs stand apart in the source and are kept apart here.

Tests used:
[1] = system: A. baumannii; assay: MIC of rifampicin on A. baumannii with bacterial sensitizer Compound D; assay type: cell-based; conditions: Acinetobacter baumannii; antibiotic alone; read-out: minimum inhibitory concentration (MIC) on A. baumannii
Experimental: Bacteria were cultured with the antibiotic at various concentrations in the presence or absence of bacterial sensitizer, Compound D, for 24 hours at 37° C.

[2] = system: B. subtilis; assay: MIC determination and sensitization fold on B. subtilis; assay type: cell-based; conditions: for sensitization fold with 5.5 μg/ml DB2560: B. subtilis towards the antibiotic; for Sensitization fold: erythromycin
[3] = system: NDM-1 expressing E. coli strain; assay: microbe, parasite or virus in culture; assay type: cell-based; conditions: for Sensitization fold with 5 μg/ml MD-124: NDM-1 expressing E. coli towards the antibiotic
[4] = system: A. baumannii (ATCC 17978); assay: MIC, sensitization fold and FIC index on A. baumannii; assay type: cell-based; conditions: for Sensitization fold with 5 μg/ml MD-124: A. baumannii towards the antibiotic
[5] = system: mcr-1 over-expressing E. coli strains; assay: microbe, parasite or virus in culture; assay type: cell-based; conditions: for MIC: Escherichia coli
[6] = system: MRSA (ATCC 33592); assay: MIC determination and sensitization fold on MRSA; assay type: cell-based, methicillin-resistant Staphylococcus aureus; conditions: MRSA towards the antibiotic
[7] = system: E. coli (ATCC 25922); assay: MIC determination, sensitization fold and FIC index on E. coli; assay type: cell-based; conditions: for MIC: Escherichia coli; for MIC of AB with MD-124: MD-124 concentration 5 μg/ml
Summary of the method: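 E. coli in cation-adjusted Mueller Hinton II, 5×10^5 CFU/ml, 24 h at 37 °C shaking; rifampicin two-fold serial dilutions with or without fixed sensitizer (10 μM).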

[8] = system: K. pneumoniae (43816); assay: MIC, sensitization fold and FIC index on K. pneumoniae; assay type: cell-based; conditions: for Sensitization fold with 5 μg/ml MD-124: K. pneumoniae towards the antibiotic
[9] = system: H9c2 (ATCC CRL-1446) cells; assay: Cytotoxicity in H9c2 cells (CCK-8); assay type: cell-based; conditions: H9c2 cell line
Summary of the method: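 H9c2 cells were grown in DMEM with 10% FBS, seeded the day before, and exposed to a range of di-amidine concentrations for 24 h at 37 °C, 5% CO2. Viability was read by CCK-8 after 3 h at 37 °C as absorbance at 450 nm.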

[10] = system: HEK293 cells; assay: Cytotoxicity on mammalian cells (CCK-8), HEK293; assay type: cell-based
Summary of the method: (§1)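 Cells seeded a day ahead to ~80% confluency, exposed to varied compound concentrations for 24 h at 37° C, 5% CO2. CCK-8 added for a further 2 h and OD 450 nm read; viability expressed as percent of untreated control.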

[11] = system: NIH3T3 cells; assay: Cytotoxicity on mammalian cells (CCK-8), NIH3T3; assay type: cell-based; conditions: 3T3 cell line; 24 h
Summary of the method: as §1

[12] = system: E. coli; assay: Ex vivo skin burn infection model, wild-type E. coli; conditions: human skin burn, hypromellose gel, 24 hours; 4‰ (w/w) novobiocin, 1.5‰ MD-124
Experimental: To achieve topical application, compounds were formulated as hypromellose gel. […] After that, skin was loaded with hypromellose gel with different antibiotics and cultured at 37° C. for 24 hours. After 24 hours incubation, the skin sample was homogenized and the supernatants were serially diluted and plated on agar plates, from which bacterial counts on the skin was calculated. […] 1‰ polymyxin B hypromellose gel was used as positive control.

[13] = system: M. smegmatis; assay: MIC on mycobacteria; assay type: cell-based, Mycobacterium smegmatis; conditions: Mycolicibacterium smegmatis, read-out: MIC on mycobacteria
[14] = system: E. coli (lipid A part of LPS); assay: Dansyl-PMBN displacement assay; assay type: binding; conditions: E. coli with 10 μM Dansyl-PMBN; sensitizer 0 to 200 μM
Experimental: Panel (C) depicts a Dansyl-PMBN displacement assay. […] The fluorescent intensity of 10 μM Dansyl-PMBN in HEPES buffer was recorded as baseline F0. Fluorescent intensity/%=(F1−Fx)/(F1−F0). […] All results are triplicates.
Dansyl-PMBN displacement assay. Dansyl-PMBN was synthesized according to literature procedure. Dansyl-PMBN was dissolved in H2O to make 500 μM stock. Bacterial sensitizers were dissolved in ethanol to make 10 mM stock solutions. […] The E. coli stock was centrifuged at 3000 g for 10 min, washed with HEPES buffer (pH=7.2) and then centrifuged again to obtain bacteria pallet. The pallet was then gently resuspended in HEPES buffer to obtain a E. coli suspension with OD600 about 0.3. The experiment was performed on 96-well plates. Each well was supplied with 100 μl coli suspension with 10 μM Dansyl-PMBN, then to each well, different concentrations of bacterial sensitizers were added to achieve a final concentration ranging from 0 to 200 μM.
Mg^2+ can bridge between adjacent lipid A and enhance the membrane integrity. […] This phenomenon was also observed on MD-100. The culture medium for E. coli is Muller Hinton Broth (Cation adjusted), which already has at least 0.5 mM Mg^2+, so the “zero concentration point of Mg^2+” in FIG. 4 represents the amount of exogenous Mg^2+, not the total Mg^2+ in the culture medium. […] A fluorescent conjugate of a polymyxin-B derivative (Dansyl-PMBN, Scheme 3), which would show increased fluorescent intensity after binding to the lipid A part of LPS, was used to further probe this issue. In the presence of another component that can also binding to lipid A, Dansyl-PMBN would be replaced, leading to decreased fluorescent intensity.

[15] = system: E. coli; assay: Lysozyme assay (outer membrane disruption); assay type: cell-based; conditions: 50 μg/ml lysozyme, 50 μg/ml sensitizer, 10 min
Experimental: Lysozyme assay to evaluate the disruption of Gram-negative bacteria out membrane by bacterial sensitizers. Lysozyme assay was performed based on literature reported method. E. coli was cultured in Mueller Hinton II cation-adjusted broth for overnight, centrifuged at 3000 g for 10 min, washed with HEPES buffer (pH=7.2) and then centrifuged again to obtain bacteria pallet. The pallet was then gently resuspended in HEPES buffer with 5 mM NaCN to obtain an E. coli suspension with OD600 between 0.8˜1.0. On a 96-well plate, each well was supplied with 100 μl lysozyme solution (100 μg/ml) containing 50 or 100 μg/ml bacterial sensitizers in HEPES buffer. To each well was added 100 μl E. coli suspension. The final concentration of lysozyme was 50 μg/ml. The plate was incubated at room temperature for 10 min and the OD600 was recorded. E. coli was also incubated with bacterial sensitizers in the absence of lysozyme to test if bacterial sensitizers would directly induce bacterial lysis. E. coli that was incubated with lysozyme alone or E. coli without any treatment were also used as negative control.

[16] = system: MRSA and E. coli; assay: Composition of mixed MRSA and E. coli under antibiotic pressure; assay type: cell-based; conditions: trovafloxacin 16 ng/ml
Experimental: FIG. 11 contains graphs showing that MD-108 can change the composition between MRSA and E. coli (Panel A) or MRSA and B. subtilis (Panel B) when the bacteria strains are under the same antibiotic pressure.
As a proof of concept, the relative ratio of E. coli and MRSA or B. subtilis and MRSA was measured with and without MD-108 (FIGS. 11A and B). […] When supplied with 1.5 μg/ml MD-108 and 8 ng/ml trovafloxacin, the MRSA inhibition was achieved, leaving E. coli as the dominant species (89% of the bacteria population).

[17] = A. baumannii, checkerboard assay
[18] = E. coli towards the antibiotic, MD-124 5 μg/ml
[19] = E. coli, rifampicin, compound at 25 μM

CO[C@H]1/C=C/O[C@@]2(C)Oc3c(C)c(O)c4c(O)c(c(/C=N/N5CCN(C)CC5)c(O)c4c3C2=O)NC(=O)/C(C)=C\C=C\[C@H](C)[C@H](O)[C@@H](C)[C@@H](O)[C@@H](C)[C@H](OC(C)=O)[C@@H]1C [Rifampicin]
MIC [1]: 5 µg/mL
FIC index between DB2560 and antibiotic ([2]; B. subtilis): 0.11
MIC of antibiotic in the presence of 5.5 μg/ml of DB2560 ([2]; B. subtilis): 0.037 µg/mL
sensitization fold with 5.5 μg/ml DB2560 [2]: 256 fold
MIC ([3]; Escherichia coli, read-out: MIC of rifampicin with 10 μg/ml MD-124, NDM-1 expressing E. coli): 0.012 µg/mL
FIC index between MD-124 and antibiotic ([3]; NDM-1 expressing E. coli): 0.09
Sensitization fold with 5 μg/ml MD-124 [3]: 516 fold
Sensitization fold with 5 μg/ml MD-124 [4]: 128 fold
FIC index between MD-124 and antibiotic [4, 17]: 0.14
MIC ([4]; Acinetobacter baumannii, ATCC17978, A. baumannii, checkerboard assay, read-out: MIC of rifampicin with 7 pg/ml of the sensitizer (MD-124)): 0.01 µg/mL
MIC ([5]; mcr-1 over-expression E. coli strain (MIC of polymyxin B 30 μg/ml), read-out: MIC of AB only): 5 µg/mL
MIC ([5]; read-out: MIC of AB with 5 μg/ml MD-124, mcr-1 over-expression E. coli strain (MIC of polymyxin B 30 μg/ml)): ≤ 0.2 µg/mL
MIC ([5]; strain mcr-1 A, read-out: MIC of Rif only): 5 µg/mL
MIC ([5]; strain mcr-1 B, read-out: MIC of Rif only): 5 µg/mL
FIC index between MD-124 and antibiotic ([5]; mcr-1 expressing E. coli): 0.37
MIC of AB with 5 μg/ml MD-124 ([5]; mcr-1 over-expression E. coli strain (MIC of polymyxin B 30 μg/ml)): 0.16 µg/mL
Sensitization fold with 5 μg/ml MD-124 ([5]; mcr-1 over-expression E. coli strain towards the antibiotic): 32 fold
sensitization fold with 2.7 μg/ml DB2560 [6]: 32 fold
Sensitization fold [7, 18]: 516 fold
fractional inhibitory concentration (FIC) index between MD-124 and antibiotic ([7]; E. coli, checkerboard assay): 0.09
MIC ([7]; ATCC25922, E. coli, with ~10 μg/ml MD-124, read-out: MIC of rifampicin (checkerboard assay)): 0.0006 µg/mL
FIC index between MD-124 and antibiotic ([8]; K. pneumoniae): 0.15
MIC of AB with 5 μg/ml MD-124 ([8]; K. pneumoniae): 0.016 µg/mL
Sensitization fold with 5 μg/ml MD-124 [8]: 252 fold

N=C(N)c1ccc(OCc2ccc(-c3ccc(C(=N)N)cc3)cc2)cc1 [DB2542]
CC50 [9]: 100 µM
MIC ([7]; ATCC25922, 24 h, E. coli, compound alone, read-out: MIC): 50 µM

Cc1cc(COc2ccc(NC(=N)N)cc2)cc(COc2ccc(NC(=N)N)cc2)c1 [MD-125, 1,1′-((((5-methyl-1,3-phenylene)bis(methylene))bis(oxy))bis(4,1-phenylene)) diguanidine di(trifluoroacetate)]
CC50 ([10]; HEK293 cell line, 24 h): 100 µM
IC50 ([10]; Homo sapiens, HEK293): 100 µM
CC50 [9]: 100 µM
CC50 [11]: 100 µM
Sensitization fold ([7]; 10 μM compound, rifampicin as the antibiotic (Table 6)): 8 fold
Sensitization fold ([7]; E. coli, rifampicin, compound at 10 μM): 8-fold at 10 μM
Sensitization fold [7, 19]: 32-fold at 25 μM
MIC ([7]; ATCC25922, 24 h): 100 µM

CO[C@@H]1[C@@H](OC(N)=O)[C@@H](O)[C@H](Oc2ccc3c(O)c(NC(=O)c4ccc(O)c(CC=C(C)C)c4)c(=O)oc3c2C)OC1(C)C [Novobiocin, reference compound]
sensitization fold with 5.5 μg/ml DB2560 [2]: 4 fold
Sensitization fold with 5 μg/ml MD-124 [3]: 32 fold
Sensitization fold with 5 μg/ml MD-124 [4]: 32 fold
FIC index between MD-124 and antibiotic [4, 17]: 0.20
Sensitization fold [7, 18]: 64 fold
MIC of AB with MD-124 ([7]; E. coli): 1.6 µg/mL
MIC ([7]; ATCC25922, 24 h, E. coli (wild type), antibiotic alone, read-out: MIC of AB only): 100 µg/mL
E. coli growth inhibition / bacterial load vs vehicle group [12]: neither 4‰ (w/w) novobiocin nor 1.5‰ MD-124 themselves achieved significant E. coli growth inhibition
MIC of AB with 5 μg/ml MD-124 ([8]; K. pneumoniae): 6.4 µg/mL
Sensitization fold with 5 μg/ml MD-124 [8]: 32 fold

N=C(N)c1ccc(OCc2cccc(COc3ccc(C(=N)N)cc3)c2)cc1 [DB2559, 1,3-Bis {(4-amidino)-phenoxymethyl}-benzene dihydrochloride]
CC50 [9]: 100 µM
MIC [13]: 12 µM
Sensitization fold ([2]; B. subtilis, compound at 6 μM): 4-fold at 6 μM
Sensitization fold ([2]; B. subtilis, compound at 12 μM): 8-fold at 12 μM;
MIC ([2]; Bacillus subtilis, 24 h, B. subtilis, compound alone, read-out: MIC): 25 µM
Sensitization fold [7, 19]: 8-fold at 25 μM;
Sensitization fold ([7]; E. coli, rifampicin, compound at 50 μM): 16-fold at 50 μM;
MIC ([7]; ATCC25922, 24 h): 100 µM

N=C(N)c1ccc(OCCCCCOc2ccc(C(=N)N)cc2)cc1 [pentamidine, reference compound]
displacement of Dansyl-PMBN (fluorescent intensity) [14]: able to displace Dansyl-PMBN although not as much as MD-124
bacterial lysis by lysozyme in the presence of sensitizer [15]: led to bacterial lysis
Sensitization fold ([7]; E. coli, rifampicin, 20 μg/ml bacterial sensitizer): 4 fold

N[C@@H]1[C@H]2CN(c3nc4c(cc3F)c(=O)c(C(=O)O)cn4-c3ccc(F)cc3F)C[C@@H]12 [Trovafloxacin, reference compound]
MRSA share of the bacteria population [16]: 78%
sensitization fold with 5.5 μg/ml DB2560 [2]: 8 fold
Sensitization fold with 5 μg/ml MD-124 [3]: 32 fold
Sensitization fold with 5 μg/ml MD-124 [4]: 2 fold
sensitization fold with 2.7 μg/ml DB2560 [6]: 16 fold
Sensitization fold [7, 18]: 32 fold
MIC of AB with MD-124 ([7]; E. coli): 0.0015 µg/mL
